# Results: paper PMC6494957 (Frontiers in Microbiology, 2019)
# Like-named read-outs stand apart in the source and are kept apart here.
# Tests used:
# P. aeruginosa PA01 = experiment: MIC broth microdilution and checkerboard; assay type: cell-based, Pseudomonas aeruginosa; conditions: for DRI EDTA:ROB: DRI of the labelled component; for MIC: Pseudomonas aeruginosa; for MIC in combination EDTA:ROB: concentration of the labelled component
# Method: (§1) The MIC for ampicillin or gentamicin against each isolate was determined for each test to serve as an internal quality control. The MICs of isolates were determined by visual reading and using an EnSpire Multimode Plate Reader 2300 atA600nm.
# (§2) Briefly, antimicrobial stock solutions for robenidine and PMBN were prepared at a concentration of 12.8 mg/ml in DMSO. […] A 1 μl aliquot of the first compound from each combination was dispensed along the abscissa (from row A to G) of the 96-well microplate, while the second compound was dispensed along the ordinate (from column 12 to column 3) using an electronic multichannel pipette followed by 89 μl of LB broth. Each well of the plate was inoculated with an aliquot of 10 μl bacterial suspension at a concentration of 1-5 × 10^6 colony forming units (CFU) per ml. Subsequently, the plate was incubated at 37°C for 24 h. The fractional inhibitory concentration index (FICI) described the results of the combinations, and was calculated utilizing the following formula:
# (§3) DRI = MIC of drug alone/MIC of drug in combination
# [1] = test system: P. mirabilis (n = 21) clinical isolates from otitis externa cases in dogs; experiment: MIC/MBC and checkerboard, canine otitis externa isolates; assay type: cell-based, Proteus mirabilis; conditions: for MIC50 / MIC90: Proteus mirabilis; for MIC50, in combination of EDTA and ROB / MIC90, in combination of EDTA and ROB / MIC range, in combination of EDTA and ROB: concentration of the labelled component
# Text: (§4) Escherichia coli ATCC 25922, E. coli ATCC 11229, P. aeruginosa ATCC 27853, P. aeruginosa PA01, Pseudomonas putida ATCC 17428, P. mirabilis ATCC 43071, K. pneumoniae ATCC 13883, A. baumannii ATCC 19606, and A. baumannii ATCC 12457 were used for preliminary susceptibility testing and combination experiments. S. aureus ATCC 29213 and S. pneumoniae ATCC 49619 were used as internal quality controls. A variety of bacterial organisms from both human and canine infections were investigated in this study (n = 119 isolates in total). Twenty-eight clinical Acinetobacter spp. isolates were obtained from cases of human skin and soft tissue infections, including 18 Acinetobacter baumannii and 10 A. calcoaceticus, kindly provided by a person (Institute of Medical and Veterinary Science, South Australia). […] Ninety-one clinical isolates were obtained from cases of canine otitis externa, including seven methicillin-susceptible S. pseudintermedius (MSSP), 13 multidrug- and methicillin-resistant S. pseudintermedius (MRSP) ([Saputra et al., 2017]), 20 beta-haemolytic Streptococcus spp., 30 P. aeruginosa (10 of them resistant to gentamicin and 21 P. mirabilis isolates). These isolates were obtained from the bacterial collection of the national survey of antimicrobial resistance in animals conducted in Australia. Swab samples from dogs with signs of otitis externa were collected by veterinarians and submitted to government, private or university diagnostic laboratories throughout Australia. After routine bacterial identification and the removal of confidential information, the participating veterinary diagnostic laboratories submitted the bacteria and their clinical information to PC2 Laboratories, Australian Centre for Antimicrobial Resistance Ecology, School of Animal and Veterinary Sciences, University of Adelaide, Roseworthy Campus, Roseworthy, SA, Australia, for further study. Thus, animal ethics approval was not required in this study. These organisms were identified to species level using biochemical testing and MALDI-TOF mass spectrometry (Bruker, Preston, VIC, Australia).
# as §1
# (§5) Briefly, 10 μl aliquots from each duplicate well from the MIC assays (starting from the MIC for each compound) were inoculated onto a sheep blood agar (SBA) plate and incubated at 37°C.
# as §2, §3
# [2] = test system: S. pseudintermedius (n = 20) clinical isolates from otitis externa cases in dogs; experiment: as above; assay type: cell-based, Staphylococcus pseudintermedius; conditions: for MIC50 / MIC90: Staphylococcus pseudintermedius; for MIC50, in combination of EDTA and ROB / MIC90, in combination of EDTA and ROB / MIC range, in combination of EDTA and ROB: concentration of the labelled component
# Text: as §4, §1, §5, §2, §3
# [3] = test system: preformed biofilms of P. aeruginosa PA01 and clinical isolates of P. aeruginosa; experiment: Antibiofilm susceptibility (MBEC device) and biofilm checkerboard; assay type: cell-based, Pseudomonas aeruginosa
# Method: Briefly, biofilms of P. aeruginosa PA01, two clinical isolates of P. aeruginosa isolates and two clinical isolates of S. pseudintermedius were formed by inoculating 150 μl of 10^7 CFU/ml of each bacterial suspension in the MBEC^TM device. The inoculated device was aerobically incubated on an orbital shaker at 37°C (OM11, Ratek Instruments Pty Ltd., Australia) for 24 h to produce equivalent (Uniform) biofilms on all pegs. […] Following antimicrobial challenge, the biofilms were rinsed twice with phosphate buffered saline (pH = 7) and disrupted via sonication (Soniclean, Model 160TD, Australia) for 10 min into the recovery medium. Viable cell counts were determined for recovered cells (colony-forming units per peg) after preparing a serial dilution and plating 10 μl in duplicates of each dilution onto plate count agar. Viable counts were then expressed as a percentage of the mean CFU of growth controls. MBEC was defined as the lowest concentration of antimicrobial agent that eradicates the biofilms recovered from the antimicrobial challenge.
# Briefly, the MBEC^TM High-throughput assay system (MBEC^TM BioProducts, Innovotech, Canada) was used for the preparation of Gram-positive and Gram-negative biofilm producing bacteria as described above for antibiofilm susceptibility testing. […] Subsequently, the plate was incubated at 37°C for 24 h.
# HaCaT cell line = experiment: In vitro cytotoxicity, WST-1; assay type: cell-based; conditions: Homo sapiens, 10% FBS, read-out: IC50, single agent
# Method: Cells were maintained in Dulbecco’s modified Eagle’s medium (DMEM) with 10% fetal bovine serum (FBS) and 1% PenStrep (100 U/mL Penicillin and 100 μg/mL Streptomycin) at 37°C with 5% CO2. Cells were serially passaged at ∼80% confluence ∼ every 4 days. Assays were performed in duplicate in 96 well plates seeded with ∼25,000 cells per well. […] Briefly, the antimicrobials were prepared by performing a twofold serial dilution at 100× of tested concentration in DMSO. Subsequently, a 1 μl aliquot of each concentration was transferred to a sterile 96-well plate containing fresh DMEM with either 10% FBS. After mixing four times, the media aliquots with different concentrations of antimicrobial were transferred to each well of the 96-well plate seeded with cells, using wells containing 1–2% DMSO only as control. To determine the effect of FBS on the cytotoxicity of each compound, DMEM with 40% FBS containing different concentrations of antimicrobial was prepared as described above. After 24 h of exposure, WST-1 reagent (Cell Proliferation Assay reagent, Roche) at a concentration of 10% was added to each well. Absorbance at A450 nm on a Multiskan Ascent 354 Spectrophotometer (Labsystems) was measured after 1 h of incubation. The IC50 value was determined for each compound against each cell line via non-linear regression (three parameters) using GraphPad Prism v6 software.
# [4] = canine otitis externa, read-out: MIC50, single drug
# [5] = canine otitis externa, read-out: MIC90, single drug
# [6] = read-out: MIC50, single drug (mM in parentheses)
# [7] = read-out: MIC90, single drug (mM in parentheses)
Compound,DRI EDTA:ROB (P. aeruginosa PA01),"MIC (P. aeruginosa PA01; read-out: MIC, single drug)",MIC in combination EDTA:ROB (P. aeruginosa PA01),"MIC50 [1, 4]","MIC90 [1, 5]","MIC range, single drug ([1]; canine otitis externa)","MIC50, in combination of EDTA and ROB [1]","MIC90, in combination of EDTA and ROB [1]","MIC range, in combination of EDTA and ROB [1]","MIC50 [2, 4]","MIC90 [2, 5]","MIC range, single drug ([2]; canine otitis externa)","MIC50, in combination of EDTA and ROB [2]","MIC90, in combination of EDTA and ROB [2]","MIC range, in combination of EDTA and ROB [2]",IC50 (HaCaT cell line),further results
"N=C(N/N=C/c1ccc(Cl)cc1)N/N=C/c1ccc(Cl)cc1 [ROB, robenidine]",256,> 256 µg/mL,1.25 µg/mL,> 256 µg/mL,> 256 µg/mL,>256 µg/mL,0.125 µg/mL,0.5 µg/mL,0.125 to 4 µg/mL,2 µg/mL,2 µg/mL,1 to 4 µg/mL,1 µg/mL,1 µg/mL,0.25 to 2 µg/mL,14 µg/mL,"MBC/MIC, ROB in combination with EDTA [1]: ≥2; MBC/MIC, ROB in combination with EDTA [2]: 2; MBC/MIC, single drug ([2]; footnote for BS not shown): 1.5; antibiofilm activity ([3]; P. aeruginosa biofilms, up to 128 μg/ml, 24 h): did not show any antibiofilm activity"
"O=C(O)CN(CCN(CC(=O)O)CC(=O)O)CC(=O)O [EDTA, ethylenediaminetetraacetic acid]",2,1900 µg/mL,950 µg/mL,380 µg/mL,750 µg/mL,190 to 750 µg/mL,380 µg/mL,380 µg/mL,190 to 380 µg/mL,190 µg/mL,190 µg/mL,95 to 380 µg/mL,95 µg/mL,95 µg/mL,95 µg/mL,3.8 mM,"MIC in combination EDTA:ROB (mM in parentheses) (P. aeruginosa PA01; EDTA component): 2.5 mM; MIC (P. aeruginosa PA01; read-out: MIC, single drug (mM in parentheses)): 5 mM; MBC/MIC row, EDTA in combination [1]: 750 µg/mL; MBC/MIC row, EDTA in combination (mM in parentheses) [1]: 2 mM; MIC range, single drug (mM in parentheses) [1]: 0.5 to 2 mM; MIC50, in combination of EDTA and ROB (mM in parentheses) ([1]; EDTA component): 1 mM; MIC90, in combination of EDTA and ROB (mM in parentheses) ([1]; EDTA component): 1 mM; MIC range, in combination of EDTA and ROB (mM in parentheses) ([1]; EDTA component): 0.5 to 1 mM; MIC50 [1, 6]: 1 mM; MIC90 [1, 7]: 2 mM; MBC/MIC row, EDTA in combination [2]: 750 µg/mL; MBC/MIC row, EDTA in combination (mM in parentheses) [2]: 2 mM; MIC range, single drug (mM in parentheses) [2]: 0.25 to 1 mM; MIC50, in combination of EDTA and ROB (mM in parentheses) ([2]; EDTA component): 0.25 mM; MIC90, in combination of EDTA and ROB (mM in parentheses) ([2]; EDTA component): 0.25 mM; MIC range, in combination of EDTA and ROB (mM in parentheses) ([2]; EDTA component): 0.25 mM; MIC50 [2, 6]: 0.5 mM; MIC90 [2, 7]: 0.5 mM; concentration with significant disruption of 24 h preformed biofilms ([3]; Gram-negative (P. aeruginosa) biofilms, vs growth control): 1 mM"
